Columns and labels:
[1] = test system: A375; assay: MTT cell viability, A375 cutaneous melanoma; assay type: cell-based; conditions: 48 h, vs control
Description: (§1) Each malignant tumor cell line was cultured in Dulbecco's modified Eagle's medium (DMEM, GIBCO, Carlsbad, Calif.) supplemented with 10% fetal bovine serum (FBS, GIBCO). Cells were incubated in a humidified 5% CO2 atmosphere at 37° C. After reaching confluence, cells were detached by trypsin-EDTA solution (GIBCO), diluted 1:4-1:6, plated for subculture and were passaged routinely at a dilution of 1:4-1:6 every 4-6 days.
(§2) All cell lines were tested in triplicates.

[2] = test system: COLO829; assay: MTT cell viability, COLO829 cutaneous melanoma; assay type: cell-based; conditions: 48 h, vs control
Description: as §1, §2

[3] = test system: HCT-15; assay: MTT cell viability, HCT-15 colon cancer; assay type: cell-based; conditions: 48 h, vs control
Description: as §1, §2

[4] = test system: LoVo; assay: MTT cell viability, LoVo colon cancer; assay type: cell-based; conditions: 48 h, vs control
Description: as §1, §2

[5] = test system: HCT116; assay: MTT cell viability, HCT116 colon cancer; assay type: cell-based; conditions: 48 h, vs control
Description: as §1, §2

[6] = test system: C918; assay: MTT cell viability, C918 uveal melanoma; assay type: cell-based; conditions: vs control; for Cell viability: 48 h, MTT; for reduction of cell viabilities: FIG. 1C
Description: as §1, §2

[7] = test system: SP6.5; assay: MTT cell viability, SP6.5 uveal melanoma; assay type: cell-based; conditions: vs control; for Cell viability: 48 h, MTT; for reduction of cell viabilities: FIG. 1B
Description: as §1, §2

[8] = test system: M17; assay: MTT cell viability, M17 uveal melanoma; assay type: cell-based, human; conditions: 48 h, vs control
Description: as §1, §2

[9] = test system: T-47D; assay: MTT cell viability, T-47D breast cancer; assay type: cell-based; conditions: 48 h, vs control
Description: as §1, §2

[10] = test system: PC-3; assay: MTT cell viability, PC-3 prostate cancer; assay type: cell-based; conditions: 48 h, vs control
Description: as §1, §2

[11] = test system: NCI-H1755; assay: MTT cell viability, NCI-H1755 lung cancer; assay type: cell-based; conditions: for Cell viability: 48 h, MTT, vs control
Description: as §1, §2

[12] = test system: MDA; assay: MTT cell viability, MDA breast cancer; assay type: cell-based; conditions: for Cell viability: 48 h, MTT, vs control
Description: as §1, §2

[13] = test system: MCF-7; assay: MTT cell viability, MCF-7 breast cancer; assay type: cell-based; conditions: for Cell viability: 48 h, MTT, vs control
Description: as §1, §2

[14] = test system: BC-1; assay: MTT cell viability, BC-1 lymphoma; assay type: cell-based; conditions: for Cell viability: 48 h, MTT, vs control
Description: as §1, §2

[15] = test system: uveal melanoma cells (SP6.5); assay: Annexin V-FITC staining apoptosis analysis; assay type: cell-based
Description: FIG. 3 illustrates the fluorescence photomicrograph of pro-apoptotic effects of zeaxanthin on uveal melanoma cells after annexin V-FTIC staining. Melanoma cells (SP6.5 cell line) were treated by zeaxanthin at a concentration of 100 μM for 24 hr, and the extent of apoptosis was determined by annexin V-FTIC staining. Cells were observed under fluorescence microscope using 492 nm and 530 nm filters for recognizing and detecting FITC.
In these tests, we measured the extent of apoptosis of cells treated with zeaxanthin by annexin V-FITC staining analysis. Specifically, uveal melanoma cells (SP6.5) were plated into 8-well plates at a density of 6×10^4 cells/well. After culturing for 24 hours, cells were treated with zeaxanthin at final concentration of 10, 30, and 100 μM for another 24 hours in a CO2 incubator at 37C. Then the culture medium was aspirated and the cells were washed with the binding buffer in preparation for annexin V-FITC staining analysis. FITC-annexin V was added into each well and the cells were stained for 15 min in the dark, followed by washing with the binding buffer. The cells were then observed under fluorescence microscope using 492 nm and 530 nm filters that facilitate FITC fluorescence detection to measure the extent of apoptosis based on the principle that cell membranes of apoptotic cells were stained bright green in color.

[16] = test system: malignant hepatic tumor; assay: Treatment of a patient with recurred malignant hepatic tumor; assay type: in vivo, human; conditions: one patient
Description: In this example, zeaxanthin was used to treat a patient with malignant hepatic tumor. […] The tumor recurred in a few months in the patient after resection. The patient was then treated with zeaxanthin in view of the extensive and safe use of zeaxanthin as a supplement of the treatment of macular disorders.
In treating the recurred malignant hepatic tumor in the patient, we prescribed a dose of 80 mg/day of zeaxanthin which was used to supplement their conventional treatment of Avastin® infusion. […] The patient's condition continued to improve under the combination therapy of zeaxanthin and Avastin® infusion in the next 9 months. The patient was able to resume their social life during the period of 9 months and then passed away after 2 months. The patient's life was prolonged more than 1 year following their projected mortality under the conventional Avastin® infusion treatment on the recurring malignant hepatic tumor.
Therefore, a dosage of about 1.2 mg/kg/d of zeaxanthin was sufficient to help reducing tumor cell viability in the patient under the combination therapy.

SMILES: CC1=C(/C=C/C(C)=C/C=C/C(C)=C/C=C/C=C(C)/C=C/C=C(C)/C=C/C2=C(C)C[C@@H](O)CC2(C)C)C(C)(C)C[C@H](O)C1 [zeaxanthin]
- Cell viability ([1]; A375, 10 μM zeaxanthin): 62 ± 2.7%
- Cell viability ([1]; A375, 30 μM zeaxanthin): 41 ± 2.7%
- Cell viability ([1]; A375, 100 μM zeaxanthin): 6%
- Cell viability ([2]; COLO829, 10 μM zeaxanthin): 73 ± 4.6%
- Cell viability ([2]; COLO829, 30 μM zeaxanthin): 52 ± 2.0%
- Cell viability ([2]; COLO829, 100 μM zeaxanthin): 28 ± 1.2%
- Cell viability ([3]; HCT-15, 10 μM zeaxanthin): 62 ± 3.4%
- Cell viability ([3]; HCT-15, 30 μM zeaxanthin): 46 ± 2.4%
- Cell viability ([3]; HCT-15, 100 μM zeaxanthin): 12 ± 1.3%
- Cell viability ([4]; 10 μM zeaxanthin): 76 ± 3.8%
- Cell viability ([4]; 30 μM zeaxanthin): 51 ± 2.5%
- Cell viability ([4]; 100 μM zeaxanthin): 32 ± 1.6%
- Cell viability ([5]; HCT116, 10 μM zeaxanthin): 67 ± 3.7%
- Cell viability ([5]; HCT116, 30 μM zeaxanthin): 56 ± 2.3%
- Cell viability ([5]; HCT116, 100 μM zeaxanthin): 16 ± 1.4%
- Cell viability ([6]; C918, 10 μM zeaxanthin): 79 ± 4.1%
- reduction of cell viabilities ([6]; C918, 10 μM zeaxanthin): about 21%
- Cell viability ([6]; C918, 30 μM zeaxanthin): 48 ± 2.6%
- reduction of cell viabilities ([6]; C918, 30 μM zeaxanthin): ~52%
- Cell viability ([6]; C918, 100 μM zeaxanthin): 12 ± 1.0%
- reduction of cell viabilities ([6]; C918, 100 μM zeaxanthin): ~88%
- Cell viability ([7]; SP6.5, 10 μM zeaxanthin): 86 ± 4.3%
- reduction of cell viabilities ([7]; SP6.5, 10 μM zeaxanthin): about 14%
- Cell viability ([7]; SP6.5, 30 μM zeaxanthin): 64 ± 1.7%
- reduction of cell viabilities ([7]; SP6.5, 30 μM zeaxanthin): ~36%
- Cell viability ([7]; SP6.5, 100 μM zeaxanthin): 42 ± 2.2%
- reduction of cell viabilities ([7]; SP6.5, 100 μM zeaxanthin): ~58%
- Cell viability ([8]; M17, 10 μM zeaxanthin): 84 ± 3.9%
- Cell viability ([8]; M17, 30 μM zeaxanthin): 69 ± 2.5%
- Cell viability ([8]; M17, 100 μM zeaxanthin): 41 ± 1.0%
- Cell viability ([9]; 10 μM zeaxanthin): 83 ± 4.2%
- Cell viability ([9]; 30 μM zeaxanthin): 57 ± 3.5%
- Cell viability ([9]; 100 μM zeaxanthin): 31 ± 1.4%
- Cell viability ([10]; PC-3, 10 μM zeaxanthin): 74 ± 4.4%
- Cell viability ([10]; PC-3, 30 μM zeaxanthin): 62 ± 3.2%
- Cell viability ([10]; PC-3, 100 μM zeaxanthin): 39 ± 2.6%
- Cell viability ([11]; NCI-H1755, 10 μM zeaxanthin): 86 ± 6.7%
- Cell viability ([11]; NCI-H1755, 30 μM zeaxanthin): 81 ± 4.5%
- Cell viability ([11]; NCI-H1755, 100 μM zeaxanthin): 81 ± 90%
- final concentration at which cell viability decreased significantly ([11]; NCI-H1755, vs cells without zeaxanthin): ≥ 30 µM
- Cell viability ([12]; 10 μM zeaxanthin): 97 ± 6.36%
- Cell viability ([12]; 30 μM zeaxanthin): 95 ± 5.1%
- Cell viability ([12]; 100 μM zeaxanthin): 92 ± 9.2%
- decrease of cell viability after zeaxanthin treatment ([12]; final concentration as high as 100 μM): did not see statistically significant decrease of cell viability
- Cell viability ([13]; MCF-7, 10 μM zeaxanthin): 86 ± 4.0%
- Cell viability ([13]; MCF-7, 30 μM zeaxanthin): 73 ± 8.3%
- Cell viability ([13]; MCF-7, 100 μM zeaxanthin): 52 ± 2.4%
- final concentration at which cell viability decreased significantly ([13]; MCF-7, vs cells without zeaxanthin): ≥ 30 µM
- Cell viability ([14]; BC-1, 10 μM zeaxanthin): 79 ± 8.2%
- Cell viability ([14]; BC-1, 30 μM zeaxanthin): 67 ± 11%
- Cell viability ([14]; BC-1, 100 μM zeaxanthin): 69 ± 7.1%
- final concentration at which cell viability decreased significantly ([14]; BC-1, vs cells without zeaxanthin): ≥ 30 µM
- annexin V staining of the cell membrane (apoptotic cells) ([15]; SP6.5, 100 μM zeaxanthin, 24 hr, FIG. 3): numerous cells showed staining of the cell membrane with annexin V
- extent of apoptosis (annexin V-FITC staining) ([15]; SP6.5, 10, 30 and 100 μM zeaxanthin, 24 hours): apoptosis in uveal melanoma cells induced by zeaxanthin in a dose-dependent manner
- MRI scans of multiple recurrent hepatic tumors ([16]; 80 mg/day zeaxanthin supplementing Avastin infusion, after several months): began to shrink significantly to the point of where the tumors could not be detected
- prolongation of life beyond projected mortality under conventional Avastin infusion ([16]; 80 mg/day zeaxanthin with Avastin infusion): more than 1 year
